The subject of assay [1] is Pseudoalteromonas ulvae (TC14). Description: Anti-adhesion test, strain TC14. Type of assay: cell-based. The note with it: Pseudoalteromonas ulvae; for activity at 200 µM: 15 h; for EC50: read-out: EC50 (effective concentration to inhibit 50% of the adhesion). As to the method: (§1) Bacterial strains were grown on Väätänen nine-salts solution (VNSS). When the stationary phase was reached, the bacterial suspension was centrifuged. Cells were then diluted in sterile artificial sea water (ASW) and introduced in microtiter plates (sterile black PS; Nunc, Fisher Scientific, France) with the tested compound (at eight concentrations in three replicates) in the presence of three controls: (i) non-specific staining control, (ii) adhesion control, and (iii) positive control. The maximum percentage of solvent (DMSO 2%) used to dilute the tested compound was also tested in triplicate as additional control. After incubation during an optimized adhesion time (moderately 15 h), non-adhered bacteria were eliminated and adhered cells were quantified after SYTO 61 (1 μM) staining. A percentage of inhibition was calculated per well. A sigmoid dose-response curve was obtained by plotting the percentage of inhibition as a function of the log of tested compound concentration, after mean (n=3) and standard deviation (SD) calculation per triplicate for each concentration. EC50 values were then calculated for each compound.
Pseudoalteromonas ulvae (TC14) was isolated in June 2010 in the Military Harbor of Toulon (Mediterranean Sea, France) as described in F. Brian-Jaisson, A. Ortalo-Magné, L. Guentas-Dombrowsky, F. Armougom, Y. Blache, M. Molmeret, Microb. Ecol., 2014, 68, 94-110.

The test system of assay [2] is Pseudoalteromonas lipolytica (TC8). Description: Anti-adhesion test, strain TC8. Type of assay: cell-based. As to conditions: for activity at 200 µM: 15 h, read-out: % of adhesion at 200 μM, TC8; for EC50: read-out: EC50 (effective concentration to inhibit 50% of the adhesion), TC8. As to the method:
(§2) The anti-adhesion bioassays and toxicity tests are adapted from those disclosed in M. Camps, J.-F. Briand, L. Guentas-Dombrowsky, G. Culioli, A. Bazire and Y. Blache, Mar. Poll.
as §1

The subject of assay [3] is Paracoccus sp. (4M6). Briefly: Anti-adhesion test, strain 4M6. The assay is classed as cell-based. As to conditions: for activity at 200 µM: 15 h, read-out: % of adhesion at 200 μM, 4M6; for EC50: read-out: EC50 (effective concentration to inhibit 50% of the adhesion), 4M6. As to the method: as §2, §1
A short description of assay [4]: Gravimetry (weight loss), corrosion inhibition. The note with it: mild steel in 1N HCl. As to the method: The corrosion rates were determined by electrochemical impedance spectroscopy measurements and gravimetry.
Weight loss measurements were performed on 2.5×2.0×0.1 cm rectangular mild steel coupons. The mild steel coupons were immersed into non-de-aerated HCl 1N solution in absence and presence of different concentrations of compounds of general formula (I). After the elapsed time, the coupons were taken out, washed, dried and weighed accurately. Experiments were duplicated.
Weight loss experiments were done to confirm the corrosion inhibitive properties of AS164.
The inhibition efficiency, IE (%), was estimated from the weight loss experiments using the following equation:
[formula] wherein CR^o and CR are respectively the corrosion rate in the absence and presence of AS164.

Like-named read-outs stand apart in the source and are kept apart here.

As to `Oc1ccc(CCn2cc(CCCCc3cn(CCc4ccc(O)c(Br)c4)nn3)nn2)cc1Br` [NT22, 4-(2-(4-(4-(1-(3-bromo-4-hydroxyphenethyl)-1H-1,2,3-triazol-4-yl)butyl)-1H-1,2,3-triazol-1-yl)ethyl)-2-bromophenol], the activity at 200 µM was 54.4 ± 1.7% in assay [1], 85.6 ± 2.1% in assay [2] (Pseudoalteromonas lipolytica) and 52.4 ± 2.3% in assay [3] (Paracoccus).

As to `COc1ccc(CCn2cc(COCc3cn(CCc4ccc(OC)c(Br)c4)nn3)nn2)cc1Br` [NT6, 4-(((1-(3-bromo-4-methoxyphenethyl)-1H-1,2,3-triazol-4-yl)methoxy)methyl)-1-(3-bromo-4-methoxyphenethyl)-1H-1,2,3-triazole], the activity at 200 µM came to 38.4 ± 7.4% in assay [1], 42.7 ± 6.5% in assay [2] (Pseudoalteromonas lipolytica) and 44.9 ± 3.1% in assay [3] (Paracoccus). The figures for the EC50 in assay [1], in assay [2] (Pseudoalteromonas lipolytica) and in assay [3] (Paracoccus) were 160 ± 33.5 µM, 181 ± 21.3 µM and 164 ± 6.3 µM, respectively.

As to `CN(C)CCCOc1ccc(CCn2cc(CNCc3cn(CCc4ccc(OCCCN(C)C)c(Br)c4)nn3)nn2)cc1Br` [AS174], the activity at 200 µM in assay [1] turned out to be 45 ± 0.8%; in assay [2] (Pseudoalteromonas lipolytica) it was 55.4 ± 0.4%; in assay [3] (Paracoccus), 56.3 ± 2.4%. Further, in assay [2] (Pseudoalteromonas lipolytica), the EC50 is 185 ± 16.2 µM. For the same compound, the IE % in assay [4] (0.1 ppm) is recorded as 53.41%; in assay [4] (0.3 ppm), 87.00%; in assay [4] (0.5 ppm) it was 91.72%; in assay [4] (2 ppm) it was 95.98%; in assay [4] (10 ppm), 97.17%.

Turning to `Oc1ccc(CCn2cc(-c3cccc(-c4cn(CCc5ccc(O)c(Br)c5)nn4)c3)nn2)cc1Br` [NT24], the activity at 200 µM in assay [1] was 56.7 ± 1.3%; in assay [2] (Pseudoalteromonas lipolytica), 66.5 ± 11.6%; in assay [3] (Paracoccus) it was 61.5 ± 4.2%.

Consider `COc1ccc(CCn2cc(CCCCc3cn(CCc4ccc(OC)c(Br)c4)nn3)nn2)cc1Br` [NT3, 1-(3-bromo-4-methoxyphenethyl)-4-(4-(1-(3-bromo-4-methoxyphenethyl)-1H-1,2,3-triazol-4-yl)butyl)-1H-1,2,3-triazole], for which the activity at 200 µM is 53.3 ± 6.3% in assay [1], 56.9 ± 1.7% in assay [2] (Pseudoalteromonas lipolytica) and 50.9 ± 0.3% in assay [3] (Paracoccus).

In the case of `CN(C)CCCOc1ccc(CCn2cc(-c3cccc(-c4cn(CCc5ccc(OCCCN(C)C)c(Br)c5)nn4)c3)nn2)cc1Br` [AS171, 3-(4-(2-(4-(3-(1-(4-(3-(dimethylamino)propoxy)-3-bromophenethyl)-1H-1,2,3-triazol-4-yl)phenyl)-1H-1,2,3-triazol-1-yl)ethyl)-2-bromophenoxy)-N,N-dimethylpropan-1-amine], the IE % was found to be 53.82% in assay [4] (0.1 ppm); 86.91% in assay [4] (0.3 ppm); 91.72% in assay [4] (0.5 ppm); 97.25% in assay [4] (2 ppm); 98.51% in assay [4] (10 ppm).

Take `COc1ccc(CCn2cc(CCCc3cn(CCc4ccc(OC)c(Br)c4)nn3)nn2)cc1Br` [NT10, 1-(3-bromo-4-methoxyphenethyl)-4-(3-(1-(3-bromo-4-methoxyphenethyl)-1H-1,2,3-triazol-4-yl)propyl)-1H-1,2,3-triazole]: the figures for the activity at 200 µM in assay [1], in assay [2] (Pseudoalteromonas lipolytica) and in assay [3] (Paracoccus) were 50.4 ± 2.2%, 50 ± 4.9% and 49.2 ± 0.8%, respectively. Also, the EC50 in assay [3] (Paracoccus) turned out to be 182 ± 15.2 µM.

On to `CN(C)CCOc1ccc(CCn2cc(-c3cccc(-c4cn(CCc5ccc(OCCN(C)C)c(Br)c5)nn4)c3)nn2)cc1Br` [AS161, 2-(4-(2-(4-(3-(1-(4-(2-(dimethylamino)ethoxy)-3-bromophenethyl)-1H-1,2,3-triazol-4-yl)phenyl)-1H-1,2,3-triazol-1-yl)ethyl)-2-bromophenoxy)-N,N-dimethylethanamine], for which the IE % in assay [4] (0.1 ppm) is reported as 86.75%; in assay [4] (0.3 ppm), 86.21%; in assay [4] (0.5 ppm), 94.07%; in assay [4] (2 ppm), 97.10%; in assay [4] (10 ppm) it was 98.33%.

Regarding `CN(C)CCOc1ccc(CCCn2cc(-c3ccc(-c4cn(CCCc5ccc(OCCN(C)C)c(Br)c5)nn4)cc3)nn2)cc1Br` [SA31, 2-(4-(3-(4-(4-(1-(3-(4-(2-(dimethylamino)ethoxy)-3-bromophenyl)propyl)-1H-1,2,3-triazol-4-yl)phenyl)-1H-1,2,3-triazol-1-yl)propyl)-2-bromophenoxy)-N,N-dimethylethanamine], the IE % is given as 80.79% in assay [4] (0.1 ppm); 93.00% in assay [4] (0.3 ppm); 95.44% in assay [4] (0.5 ppm); 96.17% in assay [4] (2 ppm); 96.56% in assay [4] (10 ppm).

As to `CN(C)CCOc1ccc(CCn2cc(-c3ccc(-c4cn(CCc5ccc(OCCN(C)C)cc5)nn4)cc3)nn2)cc1` [SA11, 2-(4-(2-(4-(4-(1-(4-(2-(dimethylamino)ethoxy)phenethyl)-1H-1,2,3-triazol-4-yl)phenyl)-1H-1,2,3-triazol-1-yl)ethyl)phenoxy)-N,N-dimethylethanamine], the IE % in assay [4] (0.1 ppm) is given as 90.50%; in assay [4] (0.3 ppm), 93.32%; in assay [4] (0.5 ppm), 95.49%; in assay [4] (2 ppm) it was 96.95%; in assay [4] (10 ppm), 97.11%.

As to “tributyltin oxide [TBTO, reference compound]”, the EC50 in assay [2] (strain TC8) was 7 ± 3 µM; in assay [3] (strain 4M6) it was 4 ± 3 µM.

Consider `Oc1ccc(CCn2cc(CCCc3cn(CCc4ccc(O)c(Br)c4)nn3)nn2)cc1Br` [NT21, 4-(2-(4-(3-(1-(3-bromo-4-hydroxyphenethyl)-1H-1,2,3-triazol-4-yl)propyl)-1H-1,2,3-triazol-1-yl)ethyl)-2-bromophenol], for which the values for the activity at 200 µM in assay [1], in assay [2] (Pseudoalteromonas lipolytica) and in assay [3] (Paracoccus) were 53 ± 4%, 63% and 83.4 ± 3.9%, respectively.

Regarding `Oc1ccc(CCn2cc(COCc3cn(CCc4ccc(O)c(Br)c4)nn3)nn2)cc1Br` [NT26], the activity at 200 µM in assay [1] stood at 40.2 ± 3.3%; in assay [2] (Pseudoalteromonas lipolytica), 50.3 ± 5.79%; in assay [3] (Paracoccus) it was 47.8 ± 0.1%. Further, the results for the EC50 in assay [1], in assay [2] (Pseudoalteromonas lipolytica) and in assay [3] (Paracoccus) were 127 ± 27.5 µM, 195 ± 10.7 µM and 198 ± 4.1 µM, respectively.

As for `CN(C)CCCOc1ccc(CCn2cc(CCCc3cn(CCc4ccc(OCCCN(C)C)c(Br)c4)nn3)nn2)cc1Br` [AS168, 3-(4-(2-(4-(3-(1-(4-(3-(dimethylamino)propoxy)-3-bromophenethyl)-1H-1,2,3-triazol-4-yl)propyl)-1H-1,2,3-triazol-1-yl)ethyl)-2-bromophenoxy)-N,N-dimethylpropan-1-amine], the figures for the activity at 200 µM in assay [1], in assay [2] (Pseudoalteromonas lipolytica) and in assay [3] (Paracoccus) were 53.8 ± 5.9%, 59.9 ± 6.4% and 77.1 ± 2.4%, respectively.

Consider `CN(C)CCOc1ccc(CCn2cc(CCCc3cn(CCc4ccc(OCCN(C)C)c(Br)c4)nn3)nn2)cc1Br` [AS158], for which the activity at 200 µM in assay [1] is 55.8 ± 3.8%; in assay [2] (Pseudoalteromonas lipolytica), 57 ± 2.2%; in assay [3] (Paracoccus), 51.5 ± 3%. Also, the IE % in assay [4] (0.1 ppm) came out at 53.41%; in assay [4] (0.3 ppm) it was 87.00%; in assay [4] (0.5 ppm), 91.72%; in assay [4] (2 ppm), 95.98%; in assay [4] (10 ppm) it was 97.17%.

On to `CN(C)CCOc1ccc(CCn2cc(CCCCc3cn(CCc4ccc(OCCN(C)C)c(Br)c4)nn3)nn2)cc1Br` [AS159, 2-(4-(2-(4-(4-(1-(4-(2-(dimethylamino)ethoxy)-3-bromophenethyl)-1H-1,2,3-triazol-4-yl)butyl)-1H-1,2,3-triazol-1-yl)ethyl)-2-bromophenoxy)-N,N-dimethylethanamine], for which the activity at 200 µM in assay [1] was determined as 61.5 ± 1%; in assay [2] (Pseudoalteromonas lipolytica), 58.4 ± 4.3%; in assay [3] (Paracoccus) it was 57.4 ± 1.6%. In addition, the IE % was determined as 39.96% in assay [4] (0.1 ppm); 89.62% in assay [4] (0.3 ppm); 91.95% in assay [4] (0.5 ppm); 95.63% in assay [4] (2 ppm); 97.30% in assay [4] (10 ppm).

On to `COc1ccc(CCn2cc(CNCc3cn(CCc4ccc(OC)c(Br)c4)nn3)nn2)cc1Br` [NT7, bis((1-(3-bromo-4-methoxyphenethyl)-1H-1,2,3-triazol-4-yl)methyl)amine], for which the results for the activity at 200 µM in assay [1], in assay [2] (Pseudoalteromonas lipolytica) and in assay [3] (Paracoccus) were 37.4 ± 0.1%, 48.2 ± 2.1% and 46.3 ± 2.7%, respectively. In addition, the EC50 in assay [1] stood at 138 ± 8.7 µM; in assay [2] (Pseudoalteromonas lipolytica) it was 188 ± 3 µM; in assay [3] (Paracoccus) it was 194 ± 8 µM.
